According to PubChem BioAssay AID248 (DTP/NCI, 2004):
Several values for one entry are separate records, joined by “and”; a condition that tells them apart may be missing. Equal values may be shown once. Inconclusive results and toxic doses are left out. Cut-off read from the data, not from the text of the source: active = T/C of 150% or more; inactive = T/C below 125%.

System: L1210 leukemia ip in BDF1 mice, survival T/C
Assay: NCI In Vivo Anticancer Drug Screen. Data for tumor model L1210 Leukemia (intraperitoneal) in B6D2F1 (BDF1) mice
Conditions: endpoint: mean survival time, higher = longer survival
Procedure, shortened: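 Mice bearing the transplanted tumor received compound or vehicle. Survival of the treated group was divided by that of the vehicle-treated control group to give the ratio.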

[1] = dose: 100.0 mg/kg/injection, schedule: Q01DX009 (ip), vehicle: saline with Tween-80
[2] = dose: 100.0 mg/kg/injection, schedule: Q04DX003 (ip), vehicle: saline with Tween-80
[3] = dose: 200.0 mg/kg/injection, schedule: Q01DX009 (ip), vehicle: saline with Tween-80
[4] = dose: 200.0 mg/kg/injection, schedule: Q04DX003 (ip), vehicle: saline with Tween-80
[5] = dose: 400.0 mg/kg/injection, schedule: Q01DX009 (ip), vehicle: saline with Tween-80
[6] = dose: 400.0 mg/kg/injection, schedule: Q04DX003 (ip), vehicle: saline with Tween-80
[7] = dose: 100.0 mg/kg/injection, schedule: Q04DX002 (ip), vehicle: Klucel (hydroxypropylcellulose) (HPC)
[8] = dose: 200.0 mg/kg/injection, schedule: Q04DX002 (ip), vehicle: Klucel (hydroxypropylcellulose) (HPC)
[9] = dose: 400.0 mg/kg/injection, schedule: Q04DX002 (ip), vehicle: Klucel (hydroxypropylcellulose) (HPC)
[10] = dose: 100.0 mg/kg/injection, schedule: Q04DX003 (ip), vehicle: Klucel (hydroxypropylcellulose) (HPC)
[11] = dose: 200.0 mg/kg/injection, schedule: Q04DX003 (ip), vehicle: Klucel (hydroxypropylcellulose) (HPC)
[12] = dose: 400.0 mg/kg/injection, schedule: Q04DX003 (ip), vehicle: Klucel (hydroxypropylcellulose) (HPC)
[13] = dose: 100.0 mg/kg/injection, schedule: Q01DX001 (ip), vehicle: saline
[14] = dose: 200.0 mg/kg/injection, schedule: Q01DX001 (ip), vehicle: saline
[15] = dose: 400.0 mg/kg/injection, schedule: Q01DX001 (ip), vehicle: saline

Measured: T/C

O=C(NC(=S)Nc1cccc(F)c1)c1cccc([N+](=O)[O-])c1
inactive: dose: 100.0 mg/kg/injection, schedule: Q01DX001 (ip), vehicle: saline with Tween-80 98 % of control | [1] 94 % of control and 95 % of control | dose: 100.0 mg/kg/injection, schedule: Q04DX002 (ip), vehicle: saline with Tween-80 101 % of control and 111 % of control | [2] 98 % of control | dose: 200.0 mg/kg/injection, schedule: Q01DX001 (ip), vehicle: saline with Tween-80 93 % of control | [3] 98 % of control and 90 % of control | dose: 200.0 mg/kg/injection, schedule: Q04DX002 (ip), vehicle: saline with Tween-80 92 % of control and 96 % of control | [4] 102 % of control | [5] 92 % of control and 94 % of control | dose: 400.0 mg/kg/injection, schedule: Q04DX002 (ip), vehicle: saline with Tween-80 101 % of control and 103 % of control | [6] 101 % of control

O=C(COc1cc(Cl)c(Cl)cc1Cl)Nc1ccc(N=Nc2ccccc2)cc1
inactive: [7] 99 % of control | [8] 99 % of control | [9] 86 % of control

COc1ccc(C(=O)NC(=O)C(C(=O)c2ccc(OC)cc2)c2ccccc2)cc1 (stereo not drawn)
inactive: dose: 100.0 mg/kg/injection, schedule: Q01DX001 (ip), vehicle: other 86 % of control

N#Cc1nccc2ccc(OCc3ccc(Br)cc3)cc12
inactive: [2] 88 % of control | [4] 86 % of control | [6] 89 % of control

OC(C1CCCCC1)(C1CCCCC1)C1CCCCC1
inactive: [1] 101 % of control | [10] 91 % of control | [3] 96 % of control | [11] 92 % of control | [5] 96 % of control | [12] 96 % of control

COP(=O)(OCCCCCl)C(Cl)(Cl)Cl (stereo not drawn)
inactive: [13] 102 % of control | [14] 102 % of control | [15] 104 % of control

O=C1CC2=C(CC(O)=CC=C2)C(=O)O1
inactive: dose: 100.0 mg/kg/injection, schedule: Q04DX003 (ip), vehicle: saline 104 % of control | dose: 200.0 mg/kg/injection, schedule: Q04DX003 (ip), vehicle: saline 100 % of control | dose: 400.0 mg/kg/injection, schedule: Q04DX003 (ip), vehicle: saline 93 % of control

CC(CO)CCCC(C)C1C(O)CC2C3CCC4CC(O)CCC4(C)C3CCC21C (stereo not drawn)
inactive: dose: 100.0 mg/kg/injection, schedule: Q01DX001 (ip), vehicle: Klucel (hydroxypropylcellulose) (HPC) 88 % of control | dose: 200.0 mg/kg/injection, schedule: Q01DX001 (ip), vehicle: Klucel (hydroxypropylcellulose) (HPC) 88 % of control | dose: 400.0 mg/kg/injection, schedule: Q01DX001 (ip), vehicle: Klucel (hydroxypropylcellulose) (HPC) 91 % of control

CCNCC(=O)N(N=O)C(=O)OCC
inactive: dose: 75.0 mg/kg/injection, schedule: Q01DX001 (ip), vehicle: steriod suspending solution 110 % of control | dose: 150.0 mg/kg/injection, schedule: Q01DX001 (ip), vehicle: steriod suspending solution 102 % of control

Cc1ccc(CCC(=O)O)c2ccccc12
inactive: [7] 93 % of control | [8] 87 % of control

CCOC(=O)/C=C(\CBr)OC
inactive: dose: 12.5 mg/kg/injection, schedule: Q01DX009 (ip), vehicle: Klucel (hydroxypropylcellulose) (HPC) 105 % of control | dose: 25.0 mg/kg/injection, schedule: Q01DX009 (ip), vehicle: Klucel (hydroxypropylcellulose) (HPC) 98 % of control | dose: 25.0 mg/kg/injection, schedule: Q04DX003 (ip), vehicle: Klucel (hydroxypropylcellulose) (HPC) 90 % of control | dose: 50.0 mg/kg/injection, schedule: Q01DX009 (ip), vehicle: Klucel (hydroxypropylcellulose) (HPC) 94 % of control and 103 % of control | dose: 50.0 mg/kg/injection, schedule: Q04DX003 (ip), vehicle: Klucel (hydroxypropylcellulose) (HPC) 96 % of control | [10] 96 % of control

O=C1CCc2ccccc2/C1=C\c1ccccc1
inactive: [2] 98 % of control | [4] 97 % of control | [6] 92 % of control

CC(=O)Nc1cc(C)cc(NC(C)=O)c1C
inactive: dose: 75.0 mg/kg/injection, schedule: Q01DX001 (ip), vehicle: carboxymethylcellulose (CMC) 94 % of control | dose: 300.0 mg/kg/injection, schedule: Q01DX001 (ip), vehicle: carboxymethylcellulose (CMC) 90 % of control

COc1ccc(C2=Cc3ccc(OC(C)=O)cc3OC2)cc1
inactive: dose: 50.0 mg/kg/injection, schedule: Q01DX001 (sc), vehicle: steriod suspending solution 101 % of control | dose: 100.0 mg/kg/injection, schedule: Q01DX001 (sc), vehicle: steriod suspending solution 103 % of control | dose: 200.0 mg/kg/injection, schedule: Q01DX001 (sc), vehicle: steriod suspending solution 101 % of control | dose: 400.0 mg/kg/injection, schedule: Q01DX001 (sc), vehicle: steriod suspending solution 95 % of control

CCCCNS(=O)(=O)c1ccc(OC)c(NC(=O)c2ccc(C(=O)Nc3cc(S(=O)(=O)NCCCC)ccc3OC)cc2)c1
inactive: [13] 105 % of control | [14] 94 % of control | [15] 94 % of control

O=C1c2ccc([N+](=O)[O-])cc2-n2cccc21
inactive: [10] 95 % of control | [11] 104 % of control | [12] 98 % of control

O=c1nc2n(CCN(CCO)CCO)c3cc(Cl)c(Cl)cc3nc-2c(=O)[nH]1
inactive: dose: 5.0 mg/kg/injection, schedule: Q01DX009 (ip), vehicle: saline 107 % of control | dose: 10.0 mg/kg/injection, schedule: Q01DX001 (ip), vehicle: saline 95 % of control | dose: 10.0 mg/kg/injection, schedule: Q01DX009 (ip), vehicle: saline 93 % of control | dose: 20.0 mg/kg/injection, schedule: Q01DX001 (ip), vehicle: saline 102 % of control | dose: 20.0 mg/kg/injection, schedule: Q01DX009 (ip), vehicle: saline 104 % of control | dose: 40.0 mg/kg/injection, schedule: Q01DX001 (ip), vehicle: saline 91 % of control

CCn1cnc2c(SC(C)C)ncnc21
inactive: dose: 16.0 mg/kg/injection, schedule: Q01DX Z (ip), vehicle: carboxymethylcellulose (CMC) 95 % of control | dose: 31.0 mg/kg/injection, schedule: Q01DX Z (ip), vehicle: carboxymethylcellulose (CMC) 101 % of control | dose: 62.0 mg/kg/injection, schedule: Q01DX Z (ip), vehicle: carboxymethylcellulose (CMC) 107 % of control

CNC(=O)Nc1ccc(C)c(Cl)c1
inactive: dose: 100.0 mg/kg/injection, schedule: Q01DX009 (ip), vehicle: Klucel (hydroxypropylcellulose) (HPC) 100 % of control | [10] 102 % of control | dose: 200.0 mg/kg/injection, schedule: Q01DX009 (ip), vehicle: Klucel (hydroxypropylcellulose) (HPC) 90 % of control | [11] 102 % of control | dose: 400.0 mg/kg/injection, schedule: Q01DX009 (ip), vehicle: Klucel (hydroxypropylcellulose) (HPC) 106 % of control | [12] 104 % of control

COc1ccc(-c2nnc(-c3ccc(OC)cc3)nn2)cc1
inactive: [7] 103 % of control | [8] 87 % of control | [9] 87 % of control

COC(=O)C(Br)c1ccc([N+](=O)[O-])cc1 (stereo not drawn)
inactive: dose: 12.5 mg/kg/injection, schedule: Q01DX009 (ip), vehicle: saline with Tween-80 101 % of control | dose: 12.5 mg/kg/injection, schedule: Q04DX003 (ip), vehicle: saline 98 % of control | dose: 25.0 mg/kg/injection, schedule: Q01DX009 (ip), vehicle: saline with Tween-80 104 % of control | dose: 25.0 mg/kg/injection, schedule: Q04DX003 (ip), vehicle: saline 101 % of control | dose: 50.0 mg/kg/injection, schedule: Q04DX003 (ip), vehicle: saline 93 % of control

O=CC(Br)C(Br)c1ccccc1 (stereo not drawn)
inactive: [2] 98 % of control

CCCCS(=O)(=O)CCCCCCl
inactive: [13] 105 % of control | [14] 104 % of control | [15] 104 % of control

CCN(CC)CCOc1ccc(C2=C(c3ccccc3)CCc3cc(OC)ccc32)cc1
inactive: dose: 100.0 mg/kg/injection, schedule: Q01DX001 (ip), vehicle: carboxymethylcellulose (CMC) 90 % of control | dose: 200.0 mg/kg/injection, schedule: Q01DX001 (ip), vehicle: carboxymethylcellulose (CMC) 92 % of control | dose: 400.0 mg/kg/injection, schedule: Q01DX001 (ip), vehicle: carboxymethylcellulose (CMC) 90 % of control
